From patent US11926640B2, “Prodrugs of glutamine analogs” (THE JOHNS HOPKINS UNIVERSITY, priority 2015, dated 2024)
Entries after “also recorded” stand apart in the source; their conditions may differ.

How the values were obtained:
[1] = in vitro metabolic stability in dog plasma; format: in vitro ADME; conditions: 30 min and 60 min
Experimental: Percentage remaining was calculated in the following manner.

[2] = in vitro metabolic stability in human plasma
[3] = plasma and CSF pharmacokinetics of DON in swine after i.v. infusion; format: in vivo, Göttingen×Yucutan miniature swine; conditions: 60 min post-administration
Experimental: Compound: Compound 47 was dissolved in a sterile saline containing 5% ethanol and 5% Tween 80 on the date of administration.
Swine: Swine studies were conducted under a protocol approved by the Johns Hopkins Animal Care and Use Committee. Adult, female Göttingen×Yucutan miniature swine (Massachusetts General Hospital, MA) were housed in Johns Hopkins University facilities accredited by the Association for Assessment and Accreditation of Laboratory Animal Care International in compliance with the Animal Welfare Act, Animal Welfare Regulations, and the Public Health Service Policy on the Humane Care and Use of Laboratory Animals. Animals were maintained on a 14-h light and 10-h dark schedule, provided ad libitum water and a commercial miniswine diet (Teklad, Madison, WI) with environmental enrichment (fruit/vegetables) twice daily.

[4] = in vitro metabolic stability in mouse plasma
[5] = in vitro metabolic stability in pig plasma; conditions: 30 min and 60 min
[6] = in vitro metabolic stability in monkey plasma
[7] = plasma and CSF pharmacokinetics of DON in monkeys after i.v. DON or 14b; format: in vivo, pigtail macaques; conditions: Monkey, FIG. 58B
Experimental: Pharmacokinetic Studies in Non-human primates. All monkey studies were conducted according to protocol (#PR15M298) approved by the Animal Care and Use Committee at Johns Hopkins University. Two female pigtail monkeys (approximately 3.5 kg, non-drug naive) were adjacently housed in stainless steel cages on a social interaction rack (contains 4 cages, each 32.5″ wide×28″ deep×32″ high) maintaining temperature of 64-84° F., humidity of 30-70% with alternating 14-10 hour light/dark cycle as per the USDA Animal Welfare Act (9 CFR. Parts 1, 2, and 3). Food was provided daily in amounts appropriate for the size and age of the animals and RO purified water provided ad libitum through an in-cage lixit valve. Food enrichment was provided Monday through Friday. Prior to drug administration, macaques were sedated with ketamine given as an intramuscular injection prior to test article administration. […]
Bioanalysis of DON. […] The mean predicted relative standard deviation for back calculated concentrations of the standards and QC's for all analytes were within the range of 85 to 115%, except for the lowest concentration which was within the range of 80 to 120% with an overall accuracy and precision of 6.7% and 6.6%, respectively.
Pharmacokinetic Analysis. […] Area under the curve (AUC) was calculated by log-linear trapezoidal rule to the end of sample collection (AUClast). […]

## CC(C)OC(=O)[C@H](CCC(=O)C=[N+]=[N-])NC(=O)OC(C)OC(=O)C(C)(C)C (single isomer, unassigned) [Compound 14b, 1-Methylethyl 6-(1λ^5-diazynylidene)-N-({1-[(2,2-dimethylpropanoyl)oxy]ethoxy}carbonyl)-5-oxo-L-norleucinate]
[1]
  stability in dog plasma (in words): highly stable
[2]; 30 min and 60 min
  stability in human plasma (in words): highly stable
[2]; prodrug remaining within the 60 min incubation time, human plasma
  PLASMA STABILITY Human: 91%
[3]
  CSF delivery of DON (in words): substantially higher amounts of DON to the CSF; also recorded: enhanced CSF delivery of DON
  CSF:plasma ratio of DON (in words): increased CSF-to-plasma ratios; also recorded: enhanced CSF:plasma ratio
[4]; 30 min and 60 min
  stability in mouse plasma (in words): rapidly metabolized
[4]; prodrug remaining within the 60 min incubation time, mouse plasma
  PLASMA STABILITY Mouse: 0%
[5]
  stability in pig plasma (in words): highly stable
[6]; 30 min and 60 min
  stability in monkey plasma (in words): highly stable
[6]; prodrug remaining within the 60 min incubation time, monkey plasma
  PLASMA STABILITY Monkey: 61%
[7]
  CSF:plasma ratio of DON (in words): enhanced CSF:plasma ratio
